Source: US20220251163A1 (Sinopep-Allsino Biopharmaceutical Co., Ltd., priority 2019, published 2022)

Assays:
ob/ob mice = assay: Blood glucose reducing experiment, single subcutaneous injection in ob/ob mice; assay type: in vivo; conditions: 100 μg/kg single s.c.; for Blood glucose at different time after administration, 0 h: 0 h (before administration); for AUC0-24 h Glu: blood glucose curve area within 24 h; for AUC0-24 h Glu Decrease rate: versus model control group;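 for all read-outs here: random blood glucose read at each time point, decrease rate given as percentage fall versus the model control group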
[1] = Effect on random weight of ob/ob mice after single subcutaneous injection; assay type: in vivo; conditions: 100 μg/kg single s.c., X ± s, n = 7
Method: The mice in each group received random blood glucose value measurement before (0 h) administration and 2, 4, 6, 10 and 24 h after administration, and then the time for measuring the random blood glucose was adjusted and prolonged to 34, 48, 58 or 72 h after administration according to the blood glucose condition of the mice in each group. Meanwhile, the random weight of the mice in each group before (0 h) administration and 24 h after administration was weighed, and then the random weight of the mice corresponding to the random blood glucose measurement condition 48 or 72 h after administration was weighed.

CC[C@H](C)[C@H](NC(=O)[C@H](Cc1ccccc1)NC(=O)[C@H](CCC(=O)O)NC(=O)[C@H](CCCCN)NC(=O)[C@H](C)NC(=O)[C@H](C)NC(=O)[C@H](CCC(N)=O)NC(=O)CNC(=O)[C@H](CCC(=O)O)NC(=O)[C@H](CC(C)C)NC(=O)[C@H](Cc1ccc(O)cc1)NC(=O)[C@H](CO)NC(=O)[C@H](CO)NC(=O)[C@@H](NC(=O)[C@H](CC(=O)O)NC(=O)[C@H](CO)NC(=O)[C@@H](NC(=O)[C@H](Cc1ccccc1)NC(=O)[C@@H](NC(=O)CNC(=O)[C@H](CCC(=O)O)NC(=O)[C@H](C)NC(=O)[C@@H](N)Cc1c[nH]cn1)[C@@H](C)O)[C@@H](C)O)C(C)C)C(=O)N[C@@H](C)C(=O)N[C@@H](Cc1c[nH]c2ccccc12)C(=O)N[C@@H](CC(C)C)C(=O)N[C@H](C(=O)N[C@@H](CCCCN)C(=O)NCC(=O)N[C@@H](CCCNC(=N)N)C(N)=O)C(C)C [GLP-1, glucagon-like peptide-1, reference compound]
Blood glucose at different time after administration, 0 h (ob/ob mice; X ± s, n = 7): 20.30 ± 1.05 mmol/L
Decrease rate of blood glucose at different time after administration, 2 h (ob/ob mice): 40.6%
Blood glucose at different time after administration, 2 h (ob/ob mice; X ± s, n = 7): 12.06 ± 1.36 mmol/L
Decrease rate of blood glucose at different time after administration, 4 h (ob/ob mice): 41.9%
Blood glucose at different time after administration, 4 h (ob/ob mice; X ± s, n = 7): 11.79 ± 0.84 mmol/L
Decrease rate of blood glucose at different time after administration, 6 h (ob/ob mice): 35.9%
Blood glucose at different time after administration, 6 h (ob/ob mice; X ± s, n = 7): 13.02 ± 0.86 mmol/L
Decrease rate of blood glucose at different time after administration, 10 h (ob/ob mice): 30.9%
Blood glucose at different time after administration, 10 h (ob/ob mice; X ± s, n = 7): 14.03 ± 2.41 mmol/L
Decrease rate of blood glucose at different time after administration, 24 h (ob/ob mice): 11.1%
Blood glucose at different time after administration, 24 h (ob/ob mice; X ± s, n = 7): 18.04 ± 0.71 mmol/L
AUC0-24 h Glu (ob/ob mice; X ± s, n = 7): 359.61 ± 18.59 mmol·h/L
AUC0-24 h Glu Decrease rate (ob/ob mice): 29.6%
Changes of random body weight at different time after administration, 0 h [1]: 0.0 ± 0.0 g
Random body weight at different time after administration, 0 h [1]: 43.2 ± 0.7 g
Changes of random body weight at different time after administration, 24 h [1]: -0.1 ± 0.1 g
Random body weight at different time after administration, 24 h [1]: 43.1 ± 0.7 g

CC[C@H](C)[C@H](NC(=O)[C@H](CO)NC(=O)[C@H](Cc1ccc(O)cc1)NC(=O)[C@H](CC(=O)O)NC(=O)[C@H](CO)NC(=O)[C@@H](NC(=O)[C@H](Cc1ccccc1)NC(=O)[C@@H](NC(=O)CNC(=O)[C@H](CCC(=O)O)NC(=O)[C@H](C)NC(=O)[C@@H](N)Cc1ccc(O)cc1)[C@@H](C)O)[C@@H](C)CC)C(=O)N[C@@H](C)C(=O)N[C@@H](CCSC)C(=O)N[C@@H](CC(=O)O)C(=O)N[C@@H](CCCCN)C(=O)N[C@H](C(=O)N[C@@H](Cc1c[nH]cn1)C(=O)N[C@@H](CCC(N)=O)C(=O)N[C@@H](CCC(N)=O)C(=O)N[C@@H](CC(=O)O)C(=O)N[C@@H](Cc1ccccc1)C(=O)N[C@H](C(=O)N[C@@H](CC(N)=O)C(=O)N[C@@H](Cc1c[nH]c2ccccc12)C(=O)N[C@@H](CC(C)C)C(=O)N[C@@H](CC(C)C)C(=O)N[C@@H](C)C(=O)N[C@@H](CCC(N)=O)C(=O)N[C@@H](CCCCN)C(=O)NCC(=O)N[C@@H](CCCCN)C(=O)N[C@@H](CCCCN)C(=O)N[C@@H](CC(N)=O)C(=O)N[C@@H](CC(=O)O)C(=O)N[C@@H](Cc1c[nH]c2ccccc12)C(=O)N[C@@H](CCCCN)C(=O)N[C@@H](Cc1c[nH]cn1)C(=O)N[C@@H](CC(N)=O)C(=O)N[C@H](C(=O)N[C@H](C(=O)N[C@@H](CCC(N)=O)C(=O)O)[C@@H](C)O)[C@@H](C)CC)C(C)C)[C@@H](C)CC [GIP, Glucose-dependent inotropic peptide, reference compound]
Blood glucose at different time after administration, 0 h (ob/ob mice; X ± s, n = 7): 20.36 ± 0.74 mmol/L
Decrease rate of blood glucose at different time after administration, 2 h (ob/ob mice): 38.0%
Blood glucose at different time after administration, 2 h (ob/ob mice; X ± s, n = 7): 12.63 ± 1.70 mmol/L
Decrease rate of blood glucose at different time after administration, 4 h (ob/ob mice): 38.8%
Blood glucose at different time after administration, 4 h (ob/ob mice; X ± s, n = 7): 12.46 ± 1.66 mmol/L
Decrease rate of blood glucose at different time after administration, 6 h (ob/ob mice): 32.7%
Blood glucose at different time after administration, 6 h (ob/ob mice; X ± s, n = 7): 13.71 ± 0.86 mmol/L
Decrease rate of blood glucose at different time after administration, 10 h (ob/ob mice): 30.5%
Blood glucose at different time after administration, 10 h (ob/ob mice; X ± s, n = 7): 14.16 ± 1.24 mmol/L
Decrease rate of blood glucose at different time after administration, 24 h (ob/ob mice): 12.4%
Blood glucose at different time after administration, 24 h (ob/ob mice; X ± s, n = 7): 17.84 ± 0.87 mmol/L
AUC0-24 h Glu (ob/ob mice; X ± s, n = 7): 363.99 ± 14.21 mmol·h/L
AUC0-24 h Glu Decrease rate (ob/ob mice): 28.7%
Changes of random body weight at different time after administration, 0 h [1]: 0.0 ± 0.0 g
Random body weight at different time after administration, 0 h [1]: 43.5 ± 0.8 g
Changes of random body weight at different time after administration, 24 h [1]: 0.1 ± 0.1 g
Random body weight at different time after administration, 24 h [1]: 43.6 ± 0.8 g

CC[C@H](C)[C@H](NC(=O)[C@H](CC(C)C)NC(=O)[C@H](Cc1c[nH]c2ccccc12)NC(=O)[C@H](CCC(N)=O)NC(=O)[C@@H](NC(=O)[C@H](Cc1ccccc1)NC(=O)[C@H](C)NC(=O)[C@H](CCCCNC(=O)COCCOCCNC(=O)COCCOCCNC(=O)CC[C@H](NC(=O)CCCCCCCCCCCCCCCCC(=O)O)C(=O)O)NC(=O)[C@H](CCC(N)=O)NC(=O)[C@H](C)NC(=O)[C@@H](NC(=O)[C@H](CCCCN)NC(=O)[C@H](CC(=O)O)NC(=O)[C@H](CC(C)C)NC(=O)C1(NC(=O)[C@@H](NC(=O)[C@H](CO)NC(=O)[C@H](Cc2ccc(O)cc2)NC(=O)[C@H](CC(=O)O)NC(=O)[C@H](CO)NC(=O)[C@@H](NC(=O)[C@H](Cc2ccccc2)NC(=O)[C@@H](NC(=O)CNC(=O)[C@H](CCC(=O)O)NC(=O)C(C)(C)NC(=O)[C@@H](N)Cc2ccc(O)cc2)[C@@H](C)O)[C@@H](C)O)[C@@H](C)CC)CCC1)[C@@H](C)CC)C(C)C)C(=O)N[C@@H](C)C(=O)NCC(=O)NCC(=O)N1CCC[C@H]1C(=O)N[C@@H](CO)C(=O)N[C@@H](CO)C(=O)NCC(=O)N[C@@H](C)C(=O)N1CCC[C@H]1C(=O)N1CCC[C@H]1C(=O)N1CCC[C@H]1C(=O)N[C@@H](CO)C(N)=O [ID NO: 8]
Blood glucose at different time after administration, 0 h (ob/ob mice; X ± s, n = 7): 20.36 ± 0.87 mmol/L
Decrease rate of blood glucose at different time after administration, 2 h (ob/ob mice): 48.1%
Blood glucose at different time after administration, 2 h (ob/ob mice; X ± s, n = 7): 10.56 ± 0.99 mmol/L
Decrease rate of blood glucose at different time after administration, 4 h (ob/ob mice): 50.9%
Blood glucose at different time after administration, 4 h (ob/ob mice; X ± s, n = 7): 9.99 ± 0.86 mmol/L
Decrease rate of blood glucose at different time after administration, 6 h (ob/ob mice): 51.7%
Blood glucose at different time after administration, 6 h (ob/ob mice; X ± s, n = 7): 9.83 ± 0.85 mmol/L
Decrease rate of blood glucose at different time after administration, 10 h (ob/ob mice): 53.1%
Blood glucose at different time after administration, 10 h (ob/ob mice; X ± s, n = 7): 9.54 ± 1.12 mmol/L
Decrease rate of blood glucose at different time after administration, 24 h (ob/ob mice): 41.3%
Blood glucose at different time after administration, 24 h (ob/ob mice; X ± s, n = 7): 11.95 ± 1.26 mmol/L
Decrease rate of blood glucose at different time after administration, 34 h (ob/ob mice; 34 h): 29.6%
Blood glucose at different time after administration, 34 h (ob/ob mice; 34 h, X ± s, n = 7): 14.33 ± 1.43 mmol/L
Decrease rate of blood glucose at different time after administration, 48 h (ob/ob mice; 48 h): 15.7%
AUC0-24 h Glu (ob/ob mice; X ± s, n = 7): 260.46 ± 21.31 mmol·h/L
AUC0-24 h Glu Decrease rate (ob/ob mice): 49.0%
Changes of random body weight at different time after administration, 0 h [1]: 0.0 ± 0.0 g
Random body weight at different time after administration, 0 h [1]: 43.8 ± 0.7 g
Changes of random body weight at different time after administration, 24 h [1]: -1.1 ± 0.2 g
Random body weight at different time after administration, 24 h [1]: 42.7 ± 0.7 g
Changes of random body weight at different time after administration, 48 h ([1]; 48 h): -0.6 ± 0.1 g
Random body weight at different time after administration, 48 h ([1]; 48 h): 43.2 ± 0.7 g
